Reference: the SangsterLogP compilation

Assay: method code SF-AS, from DOI: 10.1098/rspb.1976.0034, PMID: 5728
Settings: pH 4.5

Row | SMILES | logD
1 | CCCc1ccc(S(N)(=O)=O)cc1 | 1.64
2 | CCOC(=O)c1ccc(S(N)(=O)=O)cc1 | 1.17
3 | CCCCCCNC(=O)c1ccc(S(N)(=O)=O)cc1 | 2.05
4 | CCCCCNC(=O)c1ccc(S(N)(=O)=O)cc1 | 1.51
5 | CCCNC(=O)c1ccc(S(N)(=O)=O)cc1 | 0.51
6 | CCCCOC(=O)c1ccc(S(N)(=O)=O)cc1 | 2.34
7 | CNC(=O)c1ccc(S(N)(=O)=O)cc1 | -0.31
8 | CCCCNC(=O)c1ccc(S(N)(=O)=O)cc1 | 1.05
9 | CCNC(=O)c1ccc(S(N)(=O)=O)cc1 | 0.03
10 | CCCCc1ccc(S(N)(=O)=O)cc1 | 2.45
11 | CCc1ccc(S(N)(=O)=O)cc1 | 1.31
12 | CCCCCOC(=O)c1ccc(S(N)(=O)=O)cc1 | 2.71
13 | CCCOC(=O)c1ccc(S(N)(=O)=O)cc1 | 1.75
